Reference: patent US20260285850A1, “SUBSTITUTED OXAZOLIDINONES AND IMIDAZOLINONES AS HERBICIDES” (FMC CORPORATION, priority 2023, published 2026)

How the values were obtained:
Format in all cases: in vivo
[1] = tested on: blackgrass (Alopecurus myosuroides); assay: Test A preemergence soil spray, visual injury rating 0-100; conditions: 10 days
Summary of the method: (§1)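 Compound in a non-phytotoxic, surfactant-containing solvent is applied either as a directed soil spray before seedlings emerge or onto emerged plants 2-10 cm tall; pots hold a loam-sand blend. Plants grow 10 days under greenhouse conditions and are rated by eye against untreated controls (0 no effect, 100 complete control).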

[2] = tested on: ragweed (common ragweed, Ambrosia artemisiifolia); assay: as above; conditions: 10 days
Summary of the method: as §1

[3] = tested on: oat, wild (wild oat, Avena fatua); assay: as above; conditions: 10 days
Summary of the method: as §1

corn (Zea mays) [4] = assay: as above; conditions: 10 days
Summary of the method: as §1

[5] = tested on: palmer (palmer amaranth, palmer pigweed, Amaranthus palmeri); assay: as above; conditions: 10 days
Summary of the method: as §1

[6] = tested on: green foxtail (Setaria viridis); assay: as above; conditions: 10 days
Summary of the method: as §1

[7] = tested on: ryegrass, Italian (italian ryegrass, Lolium multiflorum); assay: as above; conditions: 10 days
Summary of the method: as §1

soybean (Glycine max) [8] = assay: as above; conditions: 10 days
Summary of the method: as §1

[9] = tested on: barnyardgrass (Echinochloa crus-galli); assay: as above; conditions: 10 days
Summary of the method: as §1

kochia (Bassia scoparia) [10] = assay: as above; conditions: 10 days
Summary of the method: as §1

[11] = tested on: wheat (Triticum aestivum); assay: as above; conditions: 10 days
Summary of the method: as §1

[12] = tested on: sedge, umbrella (small-flower umbrella sedge, Cyperus difformis); assay: Test B flooded paddy test, visual plant response rating 0-100; conditions: 250 g ai/ha, Flood, applied to paddy water, evaluated after 13 days
Summary of the method: (§2)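 Greenhouse, 13 d. Seedlings at 2-leaf stage, pots flooded to 3 cm, compound delivered into floodwater, water level held constant. Evaluated visually relative to controls.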

[13] = tested on: ducksalad (Heteranthera limosa); assay: as above; conditions: 250 g ai/ha, Flood, applied to paddy water, evaluated after 13 days
Summary of the method: as §2

rice (Oryza sativa) = assay: as above; conditions: 250 g ai/ha, Flood, applied to paddy water, evaluated after 13 days
Summary of the method: as §2

[14] = tested on: barnyardgrass (Echinochloa crusgalli); assay: as above; conditions: 250 g ai/ha, Flood, applied to paddy water, evaluated after 13 days
Summary of the method: as §2

[15] = tested on: blackgrass (Alopecurus myosuroides); assay: Test A postemergence application, visual injury rating 0-100
Summary of the method: as §1

[16] = tested on: ragweed (common ragweed, Ambrosia artemisiifolia); assay: as above
Summary of the method: as §1

[17] = tested on: oat, wild (wild oat, Avena fatua); assay: as above
Summary of the method: as §1

corn (Zea mays) [18] = assay: as above
Summary of the method: as §1

[19] = tested on: palmer (palmer amaranth, palmer pigweed, Amaranthus palmeri); assay: as above
Summary of the method: as §1

[20] = tested on: green foxtail (Setaria viridis); assay: as above
Summary of the method: as §1

[21] = tested on: ryegrass, Italian (italian ryegrass, Lolium multiflorum); assay: as above
Summary of the method: as §1

soybean (Glycine max) [22] = assay: as above
Summary of the method: as §1

[23] = tested on: barnyardgrass (Echinochloa crus-galli); assay: as above
Summary of the method: as §1

[24] = tested on: horseweed (Erigeron canadensis); assay: as above
Summary of the method: as §1

kochia (Bassia scoparia) [25] = assay: as above
Summary of the method: as §1

[26] = tested on: wheat (Triticum aestivum); assay: as above
Summary of the method: as §1

[27] = 62 g ai/ha, 0 = no effect, 100 = complete control
[28] = 62 g ai/ha, postemergence, 10 days, 0 = no effect, 100 = complete control
[29] = Postemergence, 16 g ai/ha, greenhouse 10 days, 0 no effect, 100 complete control

COC(=O)COC(=O)C1=CCC(NC(=O)C2(C)CN(c3cc(F)cc(F)c3)C(=O)O2)C1 (centres unmarked) [Compound 107]
30: Pigweed, Palmer plant response rating (0-100) [19, 28] | Horseweed plant response rating (0-100) [24, 28]
20: Ragweed plant response rating (0-100) [16, 28] | Oat, Wild plant response rating (0-100) [17, 28] | Foxtail, Green plant response rating (0-100) [20, 28]
50: Wheat plant response rating (0-100) [26, 28]
100: Corn plant response rating (0-100) (corn (Zea mays) [18]; [28])
40: Ryegrass, Italian plant response rating (0-100) [7, 27] | Soybean plant response rating (0-100) (soybean (Glycine max) [22]; [28])
60: Blackgrass plant response rating (0-100) [15, 28] | Ryegrass, Italian plant response rating (0-100) [21, 28]
0: Blackgrass plant response rating ([1]; 16 g ai/ha, 0 to 100 scale) | Blackgrass plant response rating (0-100) [1, 27] | Ragweed plant response rating ([2]; 16 g ai/ha, 0 to 100 scale) | Ragweed plant response rating (0-100) [2, 27] | Oat, Wild plant response rating ([3]; 16 g ai/ha, 0 to 100 scale) | Oat, Wild plant response rating (0-100) [3, 27] | Corn plant response rating (corn (Zea mays) [4]; 16 g ai/ha, 0 to 100 scale) | Corn plant response rating (0-100) (corn (Zea mays) [4]; [27]) | Pigweed, Palmer plant response rating ([5]; 16 g ai/ha, 0 to 100 scale) | Pigweed, Palmer plant response rating (0-100) [5, 27] | Foxtail, Green plant response rating ([6]; 16 g ai/ha, 0 to 100 scale) | Foxtail, Green plant response rating (0-100) [6, 27] | Soybean plant response rating (soybean (Glycine max) [8]; 16 g ai/ha, 0 to 100 scale) | Soybean plant response rating (0-100) (soybean (Glycine max) [8]; [27]) | Barnyardgrass plant response rating ([9]; 16 g ai/ha, 0 to 100 scale) | Kochia plant response rating (kochia (Bassia scoparia) [10]; 16 g ai/ha, 0 to 100 scale) | Kochia plant response rating (0-100) (kochia (Bassia scoparia) [10]; [27]) | Wheat plant response rating ([11]; 16 g ai/ha, 0 to 100 scale) | Plant response rating, Sedge, Umbrella (0 to 100 scale, 0 is no effect and 100 is complete control) [12] | Plant response rating, Ducksalad (0 to 100 scale, 0 is no effect and 100 is complete control) [13] | Plant response rating, Rice (0 to 100 scale, 0 is no effect and 100 is complete control) (rice (Oryza sativa)) | Plant response rating, Barnyardgrass (0 to 100 scale, 0 is no effect and 100 is complete control) [14] | Blackgrass plant response rating (0 to 100 scale) [15, 29] | Ragweed plant response rating (0 to 100 scale) [16, 29] | Oat, Wild plant response rating (0 to 100 scale) [17, 29] | Corn plant response rating (0 to 100 scale) (corn (Zea mays) [18]; [29]) | Pigweed, Palmer plant response rating (0 to 100 scale) [19, 29] | Foxtail, Green plant response rating (0 to 100 scale) [20, 29] | Ryegrass, Italian plant response rating (0 to 100 scale) [21, 29] | Soybean plant response rating (0 to 100 scale) (soybean (Glycine max) [22]; [29]) | Barnyardgrass plant response rating (0 to 100 scale) [23, 29] | Horseweed plant response rating (0 to 100 scale) [24, 29] | Kochia plant response rating (0 to 100 scale) (kochia (Bassia scoparia) [25]; [29]) | Wheat plant response rating (0 to 100 scale) [26, 29]
10: Ryegrass, Italian plant response rating ([7]; 16 g ai/ha, 0 to 100 scale) | Barnyardgrass plant response rating (0-100) [9, 27] | Wheat plant response rating (0-100) [11, 27] | Kochia plant response rating (0-100) (kochia (Bassia scoparia) [25]; [28])
80: Barnyardgrass plant response rating (0-100) [23, 28]
